Experimental data as given in publication PMC8307647, “Bio-Guided Fractionation of Stem Bark Extracts from Phyllanthus muellarianus: Identification of Phytocomponents with Anti-Cholinesterase Activity” (Molecules, 2021).
Read-outs that look alike come from different tables or passages of the source.

Assays:
[1] = biological target: BuChE from human serum (Homo sapiens, UniProt P06276); assay: biochemical; assay type: biochemical; details: for inhibition at 100 µg/mL: read-out: Inhibition hBuChE at 100 µg/mL % ± SD
[2] = tested on: T1, Aβ1–42; assay: Inhibition of Aβ1–42 self-aggregation, thioflavin T fluorescence assay; assay type: biochemical; details: 1:1 molar ratio with Aβ (50 μM), 30 °C, 24 h
T1 construct: 42-aminoacid long Aβ peptide (Aβ1–42) self-aggregation; purchased Bachem AG, Bubendorf, Switzerland
Description: As reported in the previously published protocol by Bartolini et al., 1,1,1,3,3,3,hexafluoro 2-propanol pre-treated Aβ1–42 samples (Bachem AG, Bubendorf, Switzerland) were solubilized with a AcCN/0.3 mM Na2CO3/250 mM NaOH (48.4/48.4/3.2) mixture to obtain a 500 μM stock solution. Experiments were performed by diluting (final Aβ concentration 50 μM) and incubating the peptide in 10 mM phosphate buffer (pH = 8.0) containing 10 mM NaCl, at 30 °C for 24 h with and without nitidine (50 μM, Aβ/nitidine = 1/1). A blank sample containing nitidine was also prepared. To quantify amyloid fibril formation, the thioflavin T fluorescence method was used. After incubation, samples were diluted to a final volume of 2.0 mL with 50 mM glycine-NaOH buffer (pH 8.5) containing 1.5 μM thioflavin T. A 300-second time scan of fluorescence intensity was carried out (λexc = 446 nm; λem = 490 nm, FP-6200 fluorometer, Jasco Europe, Cremella, Italy), and values at plateau were averaged after subtracting the background fluorescence of 1.5 μM thioflavin T solution. The fluorescence intensities obtained in the absence and in the presence of nitidine were compared and the percent inhibition due to the presence of nitidine was calculated by the following formula: 100 − (100 × IFi/IFo), where IFi and IFo are the fluorescence intensities obtained for Aβ1–42 in the presence and in the absence of nitidine, respectively.

[3] = biological target: Human recombinant AChE (Homo sapiens, UniProt P22303); assay: biochemical; details: for inhibition at 100 µg/mL: read-out: Inhibition hAChE at 100 µg/mL % ± SD
[4] = tested on: human cholinesterases; details: cited from earlier work
[5] = tested on: Aβ; details: cited from earlier work
[6] = tested on: male Swiss mice; parameters: method as in PMID 29186770; details: single dose 20 mg kg−1 b.w.; cited from earlier work

Sequence of BuChE from human serum (P06276 29-602): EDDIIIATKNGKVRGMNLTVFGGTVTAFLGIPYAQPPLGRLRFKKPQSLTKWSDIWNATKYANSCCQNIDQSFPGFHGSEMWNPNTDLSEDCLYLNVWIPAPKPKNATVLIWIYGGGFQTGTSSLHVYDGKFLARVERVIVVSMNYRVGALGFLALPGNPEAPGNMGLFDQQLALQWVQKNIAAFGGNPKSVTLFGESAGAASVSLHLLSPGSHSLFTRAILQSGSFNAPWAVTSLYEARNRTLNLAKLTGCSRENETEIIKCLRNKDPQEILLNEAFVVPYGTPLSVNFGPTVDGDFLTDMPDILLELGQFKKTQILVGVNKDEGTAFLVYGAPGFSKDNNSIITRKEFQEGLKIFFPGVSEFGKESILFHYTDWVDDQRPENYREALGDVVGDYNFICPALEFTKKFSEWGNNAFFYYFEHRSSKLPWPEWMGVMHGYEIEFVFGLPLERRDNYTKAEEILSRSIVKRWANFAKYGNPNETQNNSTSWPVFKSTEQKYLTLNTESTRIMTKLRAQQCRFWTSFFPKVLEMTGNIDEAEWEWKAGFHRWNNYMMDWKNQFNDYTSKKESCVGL
Sequence of Human recombinant AChE (P22303 32-614): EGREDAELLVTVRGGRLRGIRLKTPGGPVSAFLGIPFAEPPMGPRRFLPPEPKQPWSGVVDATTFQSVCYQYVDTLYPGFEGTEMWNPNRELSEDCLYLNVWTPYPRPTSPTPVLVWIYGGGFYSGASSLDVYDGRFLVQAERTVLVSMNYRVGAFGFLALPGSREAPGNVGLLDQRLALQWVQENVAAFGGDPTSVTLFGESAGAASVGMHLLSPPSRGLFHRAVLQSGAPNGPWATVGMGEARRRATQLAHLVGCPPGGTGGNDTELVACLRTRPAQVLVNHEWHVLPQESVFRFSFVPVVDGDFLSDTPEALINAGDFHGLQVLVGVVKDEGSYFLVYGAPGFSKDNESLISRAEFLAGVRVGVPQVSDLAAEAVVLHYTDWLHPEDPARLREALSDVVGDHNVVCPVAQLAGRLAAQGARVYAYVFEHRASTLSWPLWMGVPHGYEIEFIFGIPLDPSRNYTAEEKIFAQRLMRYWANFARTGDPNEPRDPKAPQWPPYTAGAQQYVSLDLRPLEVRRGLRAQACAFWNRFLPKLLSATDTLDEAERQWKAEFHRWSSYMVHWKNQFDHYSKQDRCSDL

COc1cc2c[n+](C)c3c4cc5c(cc4ccc3c2cc1OC)OCO5 [Nitidine (PC3), 2,3-dimethoxy-12-methyl-[1,3]benzodioxolo[5,6-c]phenanthridin-12-ium]
IC50 [1]: 6.68 ± 0.13 µM
inhibition at 100 µg/mL [1]: > 90%
inhibition percentage of Aβ1–42 self-aggregation [2]: 15.9 ± 1.0
IC50 [3]: 5.31 ± 0.5 µM
inhibition at 100 µg/mL [3]: > 90%

COc1ccc2c(c[n+](C)c3c4cc5c(cc4ccc23)OCO5)c1OC [chelerythrine, 1,2-dimethoxy-12-methyl[1,3]benzodioxolo[5,6-c]phenanthridin-12-ium]
inhibition of human cholinesterases [4]: micromolar inhibitor
inhibition of Aβ self-aggregation [5]: significantly inhibit

COc1ccc2c3c1O[C@H]1C[C@@H](O)C=C[C@@]31CCN(C)C2 [Galanthamine, reference compound]
inhibition at 100 µg/mL [1]: > 90%

COc1ccc2c(c1O)-c1c(O)c(OC)cc3c1[C@H](C2)[N+](C)(C)CC3 [Magnoflorine (PC1), Magnoflorine]
IC50 ([1]; read-out: IC50 hBuChE µM ± SD): 131 ± 9 µM
inhibition at 100 µg/mL [1]: 69.9 ± 2.4%
selectivity index ([1]; selective for hBuChE over hAChE): 8.5
cognitive functions in a passive avoidance test [6]: significantly enhanced
long-term scopolamine-induced memory impairment [6]: able to reverse
IC50 ([3]; read-out: IC50 hAChE µM ± SD): 1120 ± 83 µM
inhibition at 100 µg/mL [3]: 19 ± 2.9%
